Test results as given in patent publication US20260137671A1, “PDK4 as a Cell-Aging Intervention Target and Its Use in Chemotherapy and Anticancer” (Shanghai Institute of Nutrition and Health, Chinese Academy …, priority 2022, published 2026).

Experiments:
[1] = system: mice aged 24 to 27 months; test: Lifespan appraisal of late-life mice; type: in vivo, C57BL/6 mice; conditions: PDK4-IN every two weeks, P<0.001 vs Vehicle
Description: FIG. 91. Schematic design for lifespan appraisal of mice. Mice aged 24 to 27 months were administered either Vehicle or PDK4-IN every two weeks, with continuous monitoring of their survival and recording of maximum lifespan.
C57BL/6 mice aged 24 to 27 months were administered either Vehicle or PDK4-IN every two weeks intraperitoneally. The median survival of animals in each group was calculated and indicated. ***, P<0.001.
The earliest deaths occurred approximately 2 months after the last physical function test. C57BL/6 mice aged 19 to 21 months were housed at 3-5 animals per cage. Same as the transplanted mice, the mice were sorted by body weight and randomly assigned to each group, and treated in either control (vehicle) or drug (PDK4) group by persons blinded to the design of the preclinical trial. From the age of 24-27 months, the mice were treated with vehicle or PDK4-IN every 2 weeks, […] for 3 consecutive days at each time. During the course of the study, some mice were removed from their original cages in order to minimize the animal housing stress caused by long-term housing in a single cage. RotaRod and hanging tests were performed monthly because these tests were sensitive and noninvasive. […] During the experiment, no mice were excluded due to fighting, accidental death or dermatitis. For biostatistics, a Cox proportional hazard model was used for survival analysis. […]

[2] = system: mice with natural senescence; test: PDK4-IN intervention in naturally aged mice: tissue senescence, physical function, serum markers; type: in vivo, C57BL/6J mice
Description: FIG. 83. Schematic design of 20-month-old C57BL/6J mice undergoing either placebo or PDK4-IN intervention.
All testing began on day 5 after the last placebo or drug treatment. Maximum walking speed was assessed using the accelerated RotaRod System (TSE System, Chesterfiled, MO). The mice were trained on the RotaRod for 3 days at speeds of 4, 6 and 8 r.p.m, lasted for 200 seconds on the 1st, 2nd and 3rd days. On the test day, the mice were placed on the RotaRod, and the test was performed starting at a speed of 4 r.p.m. The rotation speed was accelerated from 4 to 40 r.p.m at intervals of 5 minutes. When the mice fell off the RotaRod, the speed was recorded. The final results were averaged from 3 or 4 trials and normalized to baseline speed. The mice that had been trained within the previous two months were no longer trained.
Forelimb grip strength (N) was measured using a Grip Strength Meter (Columbus Instruments, Columbus, OH), and the results were averaged from more than 10 trials. For the hanging endurance test, the mice were placed on a 2 mm thick metal wire, while the later was 35 cm above a mat. The mice were only allowed to grasp the wire with their forelimbs, and the hang time was normalized to body weight and expressed as hang duration (sec)×body weight (g). The results were the average of 2 to 3 trials per mouse. Their daily activity and food intake were monitored for 24 h (12 hours of light and 12 hours of dark) by a Comprehensive Laboratory Animal Monitoring System (CLAMS). The CLAMS system was equipped with an Oxymax Open Circuit Calorimeter System (Columbus Instruments). For treadmill performance, the mice were acclimatized to run on an electric running machine (Columbus Instruments) at a 5° incline, for 3 days of training, lasted for 5 minutes each day, started at a speed of 5 m/min for 2 minutes, then accelerated to 7 m/min for 2 minutes, then 9 m/min for 1 minute. On the day of the test, the mice ran on the treadmill at an initial speed of 5 m/min for 2 min, and then the speed increased by 2 m/min every 2 min until the mice were exhausted. Fatigue was defined as the inability of mice to return to the treadmill despite mild electrical and mechanical stimulation. The distance was recorded after the test, and the total work (KJ) was calculated with the following formula: mass (kg)×g (9.8 m/s2)×distance (m)×sin (5°).
With the increasing global senescent trend in recent years, drugs that can effectively alleviate the senescent process have become a common interest among scientists and pharmaceutical companies worldwide. The inventors queried whether manipulation of PDK4 activities can control various senescence-associated phenotypes. Therefore, the inventors chose to treat normal 20-month-old wild-type mice with PDK4-IN (PDK4-IN 10 mg/kg via intraperitoneal injection once every 2 weeks) for 4 months, after which physical function or physical ability was experimentally determined in mice with natural senescence (FIG. 83).

[3] = system: PC3 cells xenografted together with PSC27 cells; test: PC3/PSC27 xenograft, tumor end volume after chemotherapy and/or PDK4-IN; type: in vivo, SCID mice
Description: All experimental mouse experiments were carried out in strict accordance with the relevant regulations of the Institutional Animal Care and Use Committee (IACUC), Shanghai Institutes for Biological Sciences, Chinese Academy of Sciences. Immuno-deficient mice ICR SCID mice (body weight about 25 g) aged about 6 weeks were used for animal experiments related to the present disclosure. Stromal cells PSC27 and epithelial cells were mixed at a ratio of 1:4, and each graft contained 1.25×10^6 cells for tissue remodeling. The xenograft tumors were implanted into mice by subcutaneous transplantation, and the animals were euthanized 8 weeks after the end of the transplantation surgery. […] For pre-clinical chemotherapeutic studies, mice received subcutaneous implantation were given standard laboratory diets. […] The time points were on the first day of the third, fifth and seventh weeks, with a total of 3 cycles of treatment, and each cycle lasted for 2 weeks. After the course of treatment, mouse […] were collected for tumor measurement and histological analysis. […] The chemotherapy experiment ended at the end of the 8th week, and the mice were dissected immediately after sacrifice, and the xenograft tumors were collected and used for pathological system analysis. To closely mimic clinical conditions involving chemotherapeutic drugs, the inventors designed a preclinical regimen incorporating a genotoxic drug (MIT) and/or the PDK4 inhibitor (PDK4-IN) (FIG. 63).

[4] = 20-month-old mice, PDK4-IN 10 mg/kg i.p. once every 2 weeks for 4 months
[5] = PDK4-IN 10.0 mg/kg combined with MIT 0.2 mg/kg i.p., end of 8-week regimen

Question: What does the source list for O=C1c2ccccc2C(=O)c2c1cccc2-c1cnn(C2CCNCC2)c1 [PDK4-IN]?
Answer: lifespan during the intervention period [1]: significantly extended the lifespan; SA-β-gal positivity in liver, lung, prostate and myocardial tissues of aged animals [2, 4]: partially reversed; age-dependent expansion of alveoli [2, 4]: effectively controlled; grip strength [2, 4]: significantly improved; motor skills [2, 4]: significantly improved; serum lactate levels ([2]; aged animals receiving PDK4-IN treatment): significant reduction; age-related elevation of serum alanine aminotransferase (ALT) ([2]; aged mice treated with PDK4-IN): significantly avoided these changes; age-related elevation of serum aspartate aminotransferase (AST) ([2]; aged mice treated with PDK4-IN): significantly avoided these changes; age-related elevation of serum lactate dehydrogenase (LDH) ([2]; aged mice treated with PDK4-IN): significantly avoided these changes; body weight ([2]; aged mice treated with PDK4-IN): essentially unaffected; food intake ([2]; aged mice treated with PDK4-IN): essentially unaffected; further decline of tumor volume over MIT alone [3, 5]: 35.5%; total tumor shrinkage compared to the control group [3, 5]: 72.6%; effect on tumor volume as single agent ([3]; PDK4-IN alone, 10.0 mg/kg i.p.): did not provide noticeable benefits
